The subject of assay [1] is cultured human mast cells (CHMC). The assay is described as follows: CHMC low cell density IgE activation: tryptase and LTC4 assays. The assay is classed as cell-based. The note with it: read-out: CHMC anti-IgE Tryptase. Summed up:
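Cultured human mast cells at low density (1000-1500 per well) rested 1 h at 37° C, then stimulated with anti-IgE for 30 min at 37° C. Supernatant tryptase measured with fluorogenic substrate (30 min, room temperature); LTC4 quantified by ELISA on diluted supernatant.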

The test system is the same in assay [2]. Briefly: CHMC low cell density ionomycin activation: tryptase assay. It counts as cell-based. The note with it: read-out: CHMC Ionomycin Tryptase.
Where [3] appears, read: Homo sapiens, Mast cell, Low Density CHMC, anti-IgE activation, tryptase readout.
Setting [4] is: Homo sapiens, Mast cell, Low Density CHMC, ionomycin activation, tryptase readout.
Setting [5] is: Low Density CHMC, anti-IgE activation, tryptase readout.
Where [6] appears, read: Low Density CHMC, ionomycin activation, tryptase readout.

SMILES strings stand for the structures.

For the compound `CC(C)(CO)NC(=O)c1cc2cc(Nc3ncc(F)c(Nc4cccc(O)c4)n3)ccc2o1` [Compound R926715, 5-Fluoro-N2-[2-(2-hydroxy-1,1-dimethylethylamino)carbonylbenzofuran-5-yl]-N4-(3-hydroxyphenyl)-2,4-pyrimidinediamine], the IC50 is 0.588 µM in assay [1] (setting [3]) and greater than 10 µM in assay [2] (setting [4]).
In the case of `O=[N+]([O-])c1cc(Nc2ccnc(Nc3ccc(Cl)c([N+](=O)[O-])c3)n2)ccc1Cl` [Compound R950154, N2,N4-Bis(4-chloro-3-nitrophenyl)-2,4-pyrimidinediamine], the IC50 was 2.08 µM in assay [1] (Homo sapiens, Mast cell) and greater than 10 µM in assay [2] (Homo sapiens, Mast cell).
`Cc1cc(Nc2ncc(F)c(Nc3cc(C)c(O)cc3C)n2)c(C)cc1O` [Compound R926623, N2,N4-Bis(2,5-dimethyl-4-hydroxyphenyl)-5-fluoro-2,4-pyrimidinediamine]: the IC50 in assay [1] (setting [3]) and in assay [2] (setting [4]) was greater than 10 µM in each case.
With `Oc1cccc(Nc2ncc(F)c(Nc3ccc4c(c3)N=CCO4)n2)c1` [Compound R909243, N4-(1,4-benzoxazin-6-yl)-5-fluoro-N2-(3-hydroxyphenyl)-2,4-pyrimidinediamine], the figures for the IC50 in assay [1] (setting [3]) and in assay [2] (setting [4]) were 0.263 µM and greater than 10 µM, respectively.
The like results for `Fc1cnc(NCc2ccc3c(c2)CCO3)nc1Nc1ccc2c(c1)OCCO2` [Compound R950205, N2-[2,3-Dihydrobenzo[b]furan-5-ylmethyl]-N4-(3,4-ethylenedioxyphenyl)-5-fluoro-2,4-pyrimidinediamine] were, in that order, 9 µM and greater than 10 µM.
Take `CNCCNC(=O)C=Nc1cccc(Nc2ncc(F)c(Nc3cccc(O)c3)n2)c1` [Compound R950225, 5-Fluoro-N4-(3-hydroxyphenyl)-N2-[3-[(N-methylamino)ethylamino]carbonylmethyleneaminophenyl]-2,4-pyrimidinediamine]: the IC50 is 5.28 µM in assay [1] (setting [3]) and greater than 10 µM in assay [2] (setting [4]).
Consider `CN1C=COc2cc(Nc3ncc(F)c(Nc4cccc(O)c4)n3)ccc21` [Compound R908704, 5-Fluoro-N4-(3-hydroxyphenyl)-N2-(N-methyl-1,4-benzoxazin-7-yl)-2,4-pyrimidinediamine], for which the IC50 in assay [1] (setting [3]) was 0.511 µM; in assay [2] (setting [4]), greater than 10 µM.
In the case of `CC(C)Oc1ccc(Nc2ncc(F)c(Nc3ccc(OC(C)C)cc3)n2)cc1` [Compound R926701, N2,N4-Bis(4-isopropoxyphenyl)-5-fluoro-2,4-pyrimidinediamine], the IC50 was 2.2 µM in assay [1] (setting [3]) and greater than 10 µM in assay [2] (setting [4]).
Turning to `Oc1cccc(Nc2nc(NCc3ccc4c(c3)CCO4)ncc2F)c1` [Compound R950213, N2-[2,3-Dihydrobenzo[b]furan-5-ylmethyl]-5-fluoro-N4-(3-hydroxyphenyl)-2,4-pyrimidinediamine], the IC50 in assay [1] (setting [3]) and in assay [2] (setting [4]) was greater than 10 µM each time.
Take `Fc1cnc(NCc2ccccc2)nc1NCc1ccccc1` [Compound R925772, N2,N4-Dibenzyl-5-fluoro-2,4-pyrimidinediamine]: the IC50 in assay [1] (setting [3]) and in assay [2] (setting [4]) was greater than 10 µM each time.
With `COC(=O)c1cc(Nc2ncc(F)c(Nc3ccc(O)c(C(=O)OC)c3)n2)ccc1O` [Compound R945043, N2,N4-Bis(4-hydroxy-3-methoxycarbonylphenyl)-5-fluoro-2,4-pyrimidinediamine], the IC50 in assay [1] (setting [3]) and in assay [2] (setting [4]) was greater than 10 µM each time.
Take `COc1cc(Nc2ncc(F)c(Nc3cc(OC)c(OC)c(OC)c3)n2)cc(OC)c1OC` [Compound R926688, N2,N4-Bis(3,4,5-trimethoxyphenyl)-5-fluoro-2,4-pyrimidinediamine]: the IC50 was 2.25 µM in assay [1] (setting [3]) and greater than 10 µM in assay [2] (setting [4]).
For `CCOC(=O)c1cnc(Nc2ccc3c(c2)OCCO3)nc1NOCc1ccccc1` [Compound R925837, N4-Benzyloxy-5-ethoxycarbonyl-N2-(3,4-ethylenedioxyphenyl)-2,4-pyrimidinediamine] the same measures were greater than 10 µM and greater than 10 µM.
As to `CNC(=O)C1Cc2cc(Nc3ncc(F)c(Nc4ccc(OC)nc4OC)n3)ccc2O1` (racemic) [Compound R927038, (±)-N4-(2,6-Dimethoxypyridin-3-yl)-N2-[2,3-dihydro-2-(N-methylamino)carbonylbenzofuran-5-yl]-5-fluoro-2,4-pyrimidinediamine], the IC50 was 1.05 µM in assay [1] (setting [3]) and greater than 10 µM in assay [2] (setting [4]).
For the compound `Fc1cnc(NC(c2ccccc2)c2ccccc2)nc1NC(c1ccccc1)c1ccccc1` [Compound R935005, N2,N4-Bis(diphenylmethyl)-5-fluoro-2,4-pyrimidinediamine], the IC50 in assay [1] (setting [3]) and in assay [2] (setting [4]) was greater than 10 µM throughout.
Turning to `CNC(=O)C1Cc2cc(Nc3ncc(F)c(Nc4ccc(F)c(F)c4)n3)ccc2O1` (racemic) [Compound R927035, (±)-N4-(3,4-Difluorophenyl)-5-fluoro-N2-[2,3-dihydro-2-(N-methylamino)carbonylbenzofuran-5-yl]-2,4-pyrimidinediamine], the figures for the IC50 in assay [1] (setting [3]) and in assay [2] (setting [4]) were 0.583 µM and greater than 10 µM, respectively.
In the case of `CC(C)c1ccc(Nc2ncc(F)c(Nc3ccc4c(c3)OCCO4)n2)cc1` [Compound R926790, N4-(3,4-Ethylenedioxyphenyl)-5-fluoro-N2-(4-isopropylphenyl)-2,4-pyrimidinediamine], the IC50 turned out to be 0.462 µM in assay [1] (setting [3]) and 7.41 µM in assay [2] (setting [4]).
In the case of `Brc1cnc(Nc2ccccc2-c2ccccc2)nc1Nc1ccccc1-c1ccccc1` [Compound R925798, N2,N4-Bis(2-phenylphenyl)-5-bromo-2,4-pyrimidinediamine], the IC50 in assay [1] (setting [3]) and in assay [2] (setting [4]) was greater than 10 µM each time.
As for `O=[N+]([O-])c1cccc(Nc2ncc(F)c(Nc3cccc([N+](=O)[O-])c3)n2)c1` [Compound R950160, N2,N4-Bis(3-nitrophenyl)-5-fluoro-2,4-pyrimidinediamine], the IC50 in assay [1] (Homo sapiens, Mast cell) was 1 µM; in assay [2] (Homo sapiens, Mast cell) it was greater than 10 µM.
In the case of `CNC(=O)COc1cccc(Nc2ncc(F)c(Nc3ccc4c(c3)C(O)CCC4)n2)c1` (racemic) [Compound R926949, 5-Fluoro-N4-(1,2,3,4-tetrahydro-1-hydroxynaphthalen-7-yl)-N2-[3-[(N-methylamino)carbonylmethyleneoxy]phenyl]-2,4-pyrimidinediamine], the IC50 in assay [1] (setting [5]) was 0.089 µM; in assay [2] (setting [6]), greater than 10 µM.
As to `CNC(=O)COc1cccc(Nc2ncc(F)c(Nc3ccc4c(c3)C=CCC4)n2)c1` [Compound R926944, 5-Fluoro-N4-(3,4-dihydronaphthalen-7-yl)-N2-[3-[(N-methylamino)carbonylmethyleneoxy]phenyl]-2,4-pyrimidinediamine], the values for the IC50 in assay [1] (setting [5]) and in assay [2] (setting [6]) were 0.225 µM and 99 µM, respectively.
As to `COc1cc(Nc2ncc(F)c(Nc3ccc4c(c3)N=CCO4)n2)cc(OC)c1` [Compound R909245, N4-(1,4-Benzoxazin-6-yl)-N2-(3,5-dimethoxyphenyl)-5-fluoro-2,4-pyrimidinediamine], the IC50 came to 0.255 µM in assay [1] (setting [3]) and 6.24 µM in assay [2] (setting [4]).
Regarding `OBc1cccc(Nc2nc(Nc3ccc4c(c3)OCCO4)ncc2F)c1` [Compound R926756, N2-(3,4-Ethylenedioxyphenyl)-5-fluoro-N4-(3-hydroxyborylphenyl)-2,4-pyrimidinediamine], the figures for the IC50 in assay [1] (setting [3]) and in assay [2] (setting [4]) were 1.36 µM and greater than 10 µM, respectively.
For `Cc1cnc(NCCc2ccc(O)cc2)nc1NCCc1ccc(O)cc1` [Compound R926397, N2,N4-Bis[2-(4-hydroxyphenyl)ethyl]-5-methyl-2,4-pyrimidinediamine] the same measures were greater than 10 µM and greater than 10 µM.
For `COc1ccc(Nc2nc(NCCN3CCN(Cc4ccccc4)CC3)ncc2F)cc1OC` [Compound R940262, N2-[2-(N-Benzylpiperazino)ethyl]-N4-(3,4-dimethoxyphenyl)-5-fluoro-2,4-pyrimidinediamine] the same measures were greater than 10 µM and greater than 10 µM.
`Fc1cnc(Nc2ccc(OCc3ccccc3)c(C(F)(F)F)c2)nc1Nc1ccc(OCc2ccccc2)c(C(F)(F)F)c1` [Compound R950090, N2,N4-Bis(4-benzyloxy-3-trifluoromethylphenyl)-5-fluoro-2,4-pyrimidinediamine]: the IC50 in assay [1] (setting [3]) and in assay [2] (setting [4]) was greater than 10 µM throughout.
As to `Nc1cccc(Nc2nc(Nc3cccc(O)c3)ncc2F)c1` [Compound R950163, N4-(3-Aminophenyl)-5-fluoro-N2-(3-hydroxyphenyl)-2,4-pyrimidinediamine], the IC50 is 0.874 µM in assay [1] (setting [3]) and greater than 10 µM in assay [2] (setting [4]).
With `Oc1ccc(CCNc2ncc(F)c(NCCc3ccc(O)cc3)n2)cc1` [Compound R925791, N2,N4-Bis[2-(4-hydroxyphenyl)ethyl]-5-fluoro-2,4-pyrimidinediamine], the IC50 in assay [1] (setting [3]) and in assay [2] (setting [4]) was greater than 10 µM in each case.
Take `OCCOc1ccc(Nc2ncc(F)c(Nc3ccc4c(c3)OCCO4)n2)cc1` [Compound R945144, N4-(3,4-Ethylenedioxyphenyl)-5-fluoro-N2-[4-(2-hydroxyethyloxy)phenyl]-2,4-pyrimidinediamine]: the IC50 in assay [1] (setting [3]) is 0.244 µM; in assay [2] (setting [4]), greater than 10 µM.
For `CN1C=COc2ccc(Nc3nc(Nc4cccc(O)c4)ncc3F)cc21` [Compound R908710, 5-Fluoro-N2-(3-hydroxyphenyl)-N4-(N-methyl-1,4-benzoxazin-6-yl)-2,4-pyrimidinediamine] the same measures were 1.84 µM and 99 µM.
For `Fc1cnc(Nc2ccc3c(c2)OC(F)(F)O3)nc1Nc1ccc2c(c1)OCCO2` [Compound R926386, N2-(2,2-Difluorobenzodioxol-5-yl)-N4-(3,4-ethylenedioxyphenyl)-5-fluoro-2,4-pyrimidinediamine] the same measures were greater than 10 µM and greater than 10 µM.

These data come from patent publication US10828301B2, “2,4-pyrimidinediamine compounds and their uses” (Rigel Pharmaceuticals, Inc, priority 2002, dated 2020).
